Usually IC50 stands for the concentration that inhibits the measured activity by half.

From publication PMC10891904 (Pharmaceuticals, 2024) come the findings set out here.

One experiment addresses T1, rabbit 5-LOX (Oryctolagus cuniculus, UniProt G1SNX0).
T1 construct: purchased Cayman Chemical 560131
T1 sequence (G1SNX0 1-674): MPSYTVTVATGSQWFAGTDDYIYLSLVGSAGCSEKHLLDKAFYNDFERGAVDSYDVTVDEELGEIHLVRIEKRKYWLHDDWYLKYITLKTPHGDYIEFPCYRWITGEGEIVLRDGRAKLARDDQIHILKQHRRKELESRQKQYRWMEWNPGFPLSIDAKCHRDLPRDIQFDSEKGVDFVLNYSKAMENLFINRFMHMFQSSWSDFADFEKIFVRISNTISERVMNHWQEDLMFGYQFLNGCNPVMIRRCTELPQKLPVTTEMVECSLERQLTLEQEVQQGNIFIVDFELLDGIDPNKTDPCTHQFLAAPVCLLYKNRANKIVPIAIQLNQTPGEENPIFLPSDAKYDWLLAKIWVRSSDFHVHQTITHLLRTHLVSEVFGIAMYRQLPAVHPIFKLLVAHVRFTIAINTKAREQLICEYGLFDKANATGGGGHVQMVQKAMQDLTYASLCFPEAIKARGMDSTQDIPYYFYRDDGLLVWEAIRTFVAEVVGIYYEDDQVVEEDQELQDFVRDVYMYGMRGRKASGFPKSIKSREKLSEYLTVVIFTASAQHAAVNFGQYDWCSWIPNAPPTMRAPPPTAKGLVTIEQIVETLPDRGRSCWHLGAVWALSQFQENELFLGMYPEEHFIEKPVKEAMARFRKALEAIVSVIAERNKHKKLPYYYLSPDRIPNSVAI
Nature of the experiment: In vitro 5-LOX inhibition assay (enzyme kit). The class given is biochemical. Conditions: mean of three values.

The test system of experiment [1] is THLE2 (healthy human liver) cells. The experiment is described as follows: Cell viability, MTT assay, THLE2. The class given is cell-based. The procedure: (§1) HepG2, MCF7, and THLE2 cells were initially seeded at a density of 1 × 10^4 cells per well (100 μL per well) in DMEM medium. These cultures were then incubated at 37 °C in a 5% CO2 environment for 24 h to attain confluency levels ranging from 70% to 80%. […] The cells were allowed to culture for an additional 24 h.
(§2) After the incubation period, 10 μL of a 12 mM MTT stock solution (5 mg/mL MTT in sterile PBS) was introduced into each well. The plate was incubated for 4 h at 37 °C. Following this, the MTT solution was removed, and the purple formazan crystals that had developed at the well bottoms were dissolved by adding 100 μL of DMSO, allowing for a 20 min incubation. A negative control was included, which involved adding 10 μL of the MTT stock solution to 100 μL of medium alone.
(§3) The absorbance at 570 nm was subsequently measured using an ELISA reader (StatFax-2100, Awareness Technology, Inc., Palm City, FL, USA). […] Sigmoidal and dose-dependent curves were created to visualize the experimental results. These assays were conducted in triplicate and were repeated in three independent experiments.
In general terms: Tetrazolium assays rely on reduction of a dye to a coloured formazan, in cell work by metabolically active cells.

Experiment [2] deals with HepG2 (human liver cancer) cells. The experiment is described as follows: Cell viability, MTT assay, HepG2. Type of experiment: cell-based. The protocol:
as §1, §2, §3

The subject of another experiment is COX-1/COX-2/5-LOX. Particulars: from experimental IC50.
In another experiment the target is ovine COX-1 (Ovis aries, UniProt P05979). The experiment is described as follows: biochemical.
Experiment [3] has as its system LPS-inflamed MCF7 cells. Conditions: 1/10 of IC50, LPS 1 μg/mL, 24 h, G3 vs G2. The procedure: (§4) HepG2, MCF7, and THLE2 cells were initially seeded in a culture medium comprising DMEM supplemented with 10% FCS and 1% penicillin/streptomycin solution. These cultures were maintained at 37 °C in a 5% CO2 environment. The culture medium was refreshed twice a week, and when the cell cultures reached approximately 80% confluence, they were subcultured after trypsinization (0.05%, w/v). To mitigate mitogenic effects, the cells were pre-cultured in serum-free DMEM for a minimum of 4 h.
(§5) To induce inflammation, 1 μg/mL of LPS was added to the cultures, as previously described. Subsequently, the cells were allowed to incubate for a duration of 24 h.
(§6) Inflammatory marker levels, including TNFα, IL1b, COX-1, COX-2, and 5-LOX, were quantified following established procedures. In short, the cells were seeded at a density of 5 × 10^4 cells per well in flat-bottomed 96-well plates. […] The cells were then incubated at 37 °C for a period of 24 h.
(§7) After incubation, the culture medium was carefully collected into micro-centrifuge tubes and subjected to centrifugation at 1500 rpm for 10 min. The resulting supernatant was transferred to new micro-centrifuge tubes, and the levels of TNFα, IL1b, COX-1, COX-2, and 5-LOX were determined using an ELISA kit (TNFα, IL1b, COX-1, COX-2, and 5-LOX were determined using enzyme-linked immunoassay (ELISA) kits from Sigma Aldrich (Saint Louis, MO, USA), Abcam (Cambridge, UK), and Aviva Systems Biology (San Diego, CA, USA).

Experiment [4] has as its system LPS-inflamed HepG2 cells. Conditions: 1/10 of IC50, LPS 1 μg/mL, 24 h. The protocol: as §4, §5, §6, §7
The subject of experiment [5] is LPS-inflamed THLE2 cells. Conditions: 1/10 of IC50, LPS 1 μg/mL, 24 h, G3 vs G2. The protocol:
as §4, §5, §6, §7

For experiment [6], the system named is MCF7 (human breast cancer) cells. The experiment is described as follows: Cell viability, MTT assay, MCF7. Type of experiment: cell-based. Conditions: 24 h. The procedure: as §1, §2, §3
The subject of experiment [7] is LPS-inflamed MCF7 cells. Particulars: 1/10 of LC50, LPS 1 µg/mL, 24 h, G3 relative to G2. The protocol: (§8) The levels of malondialdehyde (MDA), superoxide dismutase (SOD), catalase (CAT), and glutathione peroxidase (GPX) were quantified using commercial kits, following established protocols. […] Subsequently, the cells were exposed to 1 µg/mL of LPS for 24 h.
(§9) After this incubation period, the cells were rinsed with PBS, harvested from the plates, and suspended in 1 mL of ice-cold PBS (0.1 M, containing 0.05 mM EDTA). The cell suspension was homogenized, and the resulting homogenate was then subjected to centrifugation at 4000× g for 10 min at 4 °C. The obtained supernatants were preserved at −80 °C until they were ready for analysis. The protein concentration in each of the supernatant samples was determined using the Bradford assay.

For experiment [8], the system named is LPS-inflamed HepG2 cells. Conditions: 1/10 of LC50, LPS 1 µg/mL, 24 h, G3 relative to G2. The protocol: as §8, §9
Experiment [9] relates to LPS-inflamed THLE2 cells. Particulars: 1/10 of LC50, LPS 1 µg/mL, 24 h, G3 compared to G2. The procedure: as §8, §9
For experiment [10], the system named is LPS-inflamed MCF7 cells. Conditions: qPCR, β-actin reference, G3 vs G2. The procedure:
as §4, §5
(§10) To isolate total RNA from HepG2, MCF7, and THLE2 cells, the RNeasy Mini kit was employed in accordance with the manufacturer’s instructions and established methods. Subsequently, cDNA was synthesized from […] of the total RNA using Quantiscript reverse transcriptase. The resulting cDNA served as a template for evaluating the relative expression of target gene mRNAs, with β-actin serving as an internal reference. To amplify the isolated cDNA, 2X Maxima SYBR Green/ROX qPCR Master Mix was used, following the manufacturer’s protocol, and specific gene primers designed for the purpose.
(§11) The reaction volume and qPCR thermal conditions were consistent with those previously described. Upon completion of the final cycle, the temperature was increased from 60 to 95 °C to generate a melt curve. The relative change in gene expression was presented as a fold change, determined using quantities at the critical threshold (Ct) and the 2^−∆∆Ct method (Table 5).
(In qPCR the cycle at which signal appears reflects the starting amount.)

In experiment [11] the test system is LPS-inflamed HepG2 cells. Particulars: qPCR, β-actin reference, G3 vs G2. The procedure: as §4, §5, §10, §11
Experiment [12] deals with LPS-inflamed THLE2 cells. Particulars: qPCR, β-actin reference, G3 vs G2. The protocol: as §4, §5, §10, §11
The target in the next experiment is human recombinant COX-2 (Homo sapiens, UniProt P35354). The experiment is described as follows: biochemical.
human recombinant COX-2, sequence (P35354 18-604): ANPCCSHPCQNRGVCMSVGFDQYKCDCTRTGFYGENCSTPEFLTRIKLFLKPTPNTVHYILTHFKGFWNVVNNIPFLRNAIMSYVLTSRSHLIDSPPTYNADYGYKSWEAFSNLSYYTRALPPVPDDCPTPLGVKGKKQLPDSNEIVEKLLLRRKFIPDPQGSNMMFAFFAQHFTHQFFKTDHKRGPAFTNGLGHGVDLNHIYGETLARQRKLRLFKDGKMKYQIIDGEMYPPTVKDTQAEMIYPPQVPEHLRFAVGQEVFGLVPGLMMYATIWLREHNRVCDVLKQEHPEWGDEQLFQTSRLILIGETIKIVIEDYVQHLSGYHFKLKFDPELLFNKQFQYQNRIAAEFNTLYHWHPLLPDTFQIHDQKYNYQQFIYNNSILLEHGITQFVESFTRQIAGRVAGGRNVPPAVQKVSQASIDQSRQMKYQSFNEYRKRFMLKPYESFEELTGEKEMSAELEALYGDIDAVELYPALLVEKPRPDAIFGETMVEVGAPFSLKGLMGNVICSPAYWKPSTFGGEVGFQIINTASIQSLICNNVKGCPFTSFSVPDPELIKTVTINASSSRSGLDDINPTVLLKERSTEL

ovine COX-1, sequence (P05979 25-600): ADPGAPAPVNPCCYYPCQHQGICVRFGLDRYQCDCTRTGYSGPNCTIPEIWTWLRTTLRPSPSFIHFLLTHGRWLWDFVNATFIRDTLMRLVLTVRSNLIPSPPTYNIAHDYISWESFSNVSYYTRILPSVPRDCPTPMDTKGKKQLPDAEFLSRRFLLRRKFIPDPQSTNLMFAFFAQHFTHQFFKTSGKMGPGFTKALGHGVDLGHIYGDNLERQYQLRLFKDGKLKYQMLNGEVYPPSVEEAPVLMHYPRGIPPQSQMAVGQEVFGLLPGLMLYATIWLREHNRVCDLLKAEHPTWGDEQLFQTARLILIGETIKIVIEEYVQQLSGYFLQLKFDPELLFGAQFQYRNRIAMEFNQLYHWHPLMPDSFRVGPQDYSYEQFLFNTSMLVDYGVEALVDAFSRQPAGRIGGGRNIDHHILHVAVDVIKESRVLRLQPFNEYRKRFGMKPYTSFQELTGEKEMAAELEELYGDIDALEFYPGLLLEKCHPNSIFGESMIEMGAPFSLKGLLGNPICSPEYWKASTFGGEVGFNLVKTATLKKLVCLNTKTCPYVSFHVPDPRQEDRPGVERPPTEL

As to `Cc1ccc(-c2cc(C(F)(F)F)nn2-c2ccc(S(N)(=O)=O)cc2)cc1` [Celecoxib], it took 16.7 µM to reach half-maximal inhibition at rabbit 5-LOX (IC50).

As for `N.N.[Cl][Pt][Cl]` [Cisplatin], the figures for the IC50 in experiment [1] (24 h) and in [2] (24 h) were 2.14 ± 0.0953 mM and 66.9 ± 1.8 µM, respectively.

`Nc1ccc(S(=O)(=O)Nc2ncccn2)cc1` [Sulfadiazine]: the “experimental 5-LOX/COX-1 selectivity” value in the experiment with COX-1/COX-2/5-LOX came to 1. The “experimental COX-2/COX-1 selectivity” value in the experiment with COX-1/COX-2/5-LOX turned out to be 3.6. In addition, the IC50 against rabbit 5-LOX was 19.1 µM; against ovine COX-1, 18.4 µM; in experiment [6], 216 ± 3.8 µM; in experiment [1] (Homo sapiens, THLE-2, 24 h), 4.16 ± 0.0905 mM; in experiment [2] (Homo sapiens, HepG2, 24 h), 246 ± 4.1 µM; at human recombinant COX-2 it was 5.27 µM. In addition, the COX-2 level result in the experiment with LPS-inflamed MCF7 cells [3], in the experiment on LPS-inflamed HepG2 cells [4] (G3 vs G2) and with LPS-inflamed THLE2 cells [5] was “significantly reduced” each time. The IL1b level entry in the experiment with LPS-inflamed MCF7 cells [3], in the experiment with LPS-inflamed HepG2 cells [4] (G3 vs G2) and with LPS-inflamed THLE2 cells [5] was “significantly reduced” each time. In addition, the TNFα level result in the experiment with LPS-inflamed MCF7 cells [3], in the experiment on LPS-inflamed HepG2 cells [4] (G3 vs untreated LPS-inflamed cells (G2)) and in the experiment on LPS-inflamed THLE2 cells [5] was “significantly reduced” each time. Also, in the experiment with LPS-inflamed THLE2 cells [5], the 5-LOX level result is “significantly reduced”. Also, the CAT levels entry is “increased levels” in the experiment with LPS-inflamed MCF7 cells [7], “increased levels” in the experiment with LPS-inflamed HepG2 cells [8] and “significant elevation” in the experiment on LPS-inflamed THLE2 cells [9]. Also, the MDA levels entry in the experiment with LPS-inflamed MCF7 cells [7] is listed as “significant augmentation”; in the experiment on LPS-inflamed HepG2 cells [8], “significant augmentation”; with LPS-inflamed THLE2 cells [9], “substantial reduction”. Further, the GPX levels entry is “increased levels” in the experiment with LPS-inflamed HepG2 cells [8] and “significant elevation” in the experiment on LPS-inflamed THLE2 cells [9]. For the same compound, the SOD levels entry with LPS-inflamed THLE2 cells [9] is “significant elevation”. Moreover, the 5-LOX gene expression result with LPS-inflamed MCF7 cells [10], in the experiment on LPS-inflamed HepG2 cells [11] and in the experiment on LPS-inflamed THLE2 cells [12] was “significantly blunted” in each case. In addition, the COX-1 gene expression result was “significantly blunted” with LPS-inflamed MCF7 cells [10], “significantly blunted” with LPS-inflamed HepG2 cells [11] and “not significant” with LPS-inflamed THLE2 cells [12]. For the same compound, the COX-2 gene expression entry in the experiment on LPS-inflamed MCF7 cells [10], in the experiment on LPS-inflamed HepG2 cells [11] and in the experiment on LPS-inflamed THLE2 cells [12] was “significantly blunted” throughout. For the same compound, the IL1b gene expression entry in the experiment with LPS-inflamed MCF7 cells [10], with LPS-inflamed HepG2 cells [11] and in the experiment on LPS-inflamed THLE2 cells [12] was “significantly blunted” in each case. The TNFα gene expression entry with LPS-inflamed MCF7 cells [10], in the experiment on LPS-inflamed HepG2 cells [11] and in the experiment with LPS-inflamed THLE2 cells [12] was “significantly blunted” in each case.
